Here are results for 35 molecules from patent US20240409662A1, “ANTIBODY MASKS AND USES THEREOF” (Vibrant Pharma Limited, priority 2021, published 2024).

For test [1], the system named is SP34. Kind of test: Masking capability of potential masks of SP34 (ELISA, BLI). The class given is binding. The following applies: mask and linker fused to SP34 VH and/or VL. How it is done:
Binding of the 19 M-TCEs to both their antigens CEACAM5 and CD3δε was assessed with BLI using ForteBio Red96 as described above.

Test [2] concerns HT29 cells. In words: PBMC co-cultivation assay, M-TCE-induced killing of HT29 cells. Type of test: cell-based, human. The following applies: for EC50: HT29 + human PBMC, 72 hours, read-out: Efficacy (EC50); for tumor cell killing efficacy: digested vs undigested, in words; for Digested vs. masked: ratio of EC50 non-digested to MMP9-digested. The method, then: Five digested and undigested M-TCEs were tested for their tumor cell killing capability in the presence of human PBMC.
A total of 5×10^3 cells in RPMI1640 medium (supplemented with 10% FBS and 2 mM glutamine) of the target cell line (HT29) were seeded in 96-well plates (Day 0). A dilution series of respective antibodies was performed in assay media and added to target cells. On Day 0, a total of 5×10^4 PBMCs were added to each well, and the final reaction volume was adjusted to 200 μl. Percentage viability of target cell was measured by […]. LDH was measured after 72 hours using the Cell Counting Kit-8 (CK04, Dojindo, Japan) according to the manufacturer's recommendations. The results were analyzed as mean and standard deviation (SD) from triplicate wells and plotted as 4-parameter non-linear regression fittings using GraphPad Prism 9 software (GraphPad Software, San Diego, CA, USA).

The target of test [3] is CD3 on human PBMC (human, UniProt P07766 23-207). Kind of test: cell-based or functional assay.
CD3 on human PBMC, sequence (P07766 23-207): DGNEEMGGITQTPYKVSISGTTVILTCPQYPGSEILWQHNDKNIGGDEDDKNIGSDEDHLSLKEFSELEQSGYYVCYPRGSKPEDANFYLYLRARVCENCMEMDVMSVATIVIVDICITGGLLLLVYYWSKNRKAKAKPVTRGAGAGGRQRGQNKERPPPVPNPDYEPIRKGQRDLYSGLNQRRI

Where two headings read alike, the source gives them in different places. No end group written: not given here.

As for “LC-L4-G2E: M-TCE, mask on VL; QEGNEEGSGSPLGLGSGS-SP34VL, SEQ ID NO 27”, the “Masking Capability” value in test [1] is “Yes”.
Same read-out and setting: as for “L5-WT: M-TCE; QDGNEESSGGSPLGLSSGGS-SP34VH, SEQ ID NO 16”, the entry is “Yes”; as for “L2-G3A: M-TCE; QDANEEGSPLGLGS-SP34VH, SEQ ID NO 38”, “Yes”; as for “L3-WT: M-TCE; QDGNEESGSPLGLSGG-SP34VH, SEQ ID NO 14”, “Yes”.
One may read the EC50 as the concentration needed to bring the measured effect to its halfway point. Turning to “L5-D2E: M-TCE; QEGNEESSGGSPLGLSSGGS-SP34VH, SEQ ID NO 28”, the “Masking Capability” value in test [1] is listed as “Yes”. Also, the EC50 in test [2] (MMP9-digested) turned out to be 0.013 nM. Besides, the EC50 in test [2] (Non-digested) amounted to 0.418 nM. Moreover, in test [2], the “tumor cell killing efficacy” value was “higher efficacy in inducing tumor cell killing than their undigested counterparts” and the Digested vs. masked amounted to 32×.
For the molecule “L7-D2E: M-TCE; QEGNEESSGGSGSPLGLSSGGSGS-SP34VH, SEQ ID NO 30”, the “Masking Capability” value in test [1] is reported as “Yes”.
As to “L7-G3A: M-TCE; QDANEESSGGSGSPLGLSSGGSGS-SP34VH, SEQ ID NO 42”, in test [1], the “Masking Capability” value was “Yes”.
The same measure, in the same setting: with “L4-D2G: M-TCE; QGGNEEGSGSPLGLGSGS-SP34VH, SEQ ID NO 33” the entry was “Yes”.
With “L6-D2G: M-TCE; QGGNEESSGGGSPLGLSSGGGS-SP34VH, SEQ ID NO 35”, the “Masking Capability” value in test [1] is “Yes”.
Regarding “L2-Q1Y: M-TCE; YDGNEEGSPLGLGS-SP34VH, SEQ ID NO 21”, the “Masking Capability” value in test [1] is listed as “No”.
As for “L5-D2G: M-TCE; QGGNEESSGGSPLGLSSGGS-SP34VH, SEQ ID NO 34”, in test [1], the “Masking Capability” value is on record as “Yes”.
For “L2-D2R: M-TCE; QRGNEEGSPLGLGS-SP34VH, SEQ ID NO 25”, the “Masking Capability” value in test [1] was “No”.
Same read-out and setting: as for “L7-WT: M-TCE; QDGNEESSGGSGSPLGLSSGGSGS-SP34VH, SEQ ID NO 18”, the entry is “Yes”; as for “L2-D2G: M-TCE; QGGNEEGSPLGLGS-SP34VH, SEQ ID NO 32”, “Yes”.
The same measure, in the same setting: with “L5-G3A: M-TCE; QDANEESSGGSPLGLSSGGS-SP34VH, SEQ ID NO 40” the entry was “Yes”; with “L6-WT: M-TCE; QDGNEESSGGGSPLGLSSGGGS-SP34VH, SEQ ID NO 17”, “Yes”.
Still for that read-out and setting: as for “L2-Q1S: M-TCE; SDGNEEGSPLGLGS-SP34VH, SEQ ID NO 20”, the entry is “No”.
As for “L2-D2I: M-TCE; QIGNEEGSPLGLGS-SP34VH, SEQ ID NO 31”, the “Masking Capability” value in test [1] was “No”.
On the same count and under the same terms, with “L2-Q1V: M-TCE; VDGNEEGSPLGLGS-SP34VH, SEQ ID NO 23” the entry was “No”; with “L2-G3I: M-TCE; QDINEEGSPLGLGS-SP34VH, SEQ ID NO 37”, “No”.
On to “L6-D2E: M-TCE; QEGNEESSGGGSPLGLSSGGGS-SP34VH, SEQ ID NO 29”, for which the “Masking Capability” value in test [1] was “Yes”. Further, the EC50 in test [2] (MMP9-digested) is 0.01 nM. The EC50 in test [2] (Non-digested) was determined as 0.317 nM. For the same molecule, in test [2], the “tumor cell killing efficacy” value is “higher efficacy in inducing tumor cell killing than their undigested counterparts” and the Digested vs. masked is given as 32×.
On to “L0-WT: M-TCE; QDGNEEPLGL-SP34VH, SEQ ID NO 12”, for which the “Masking Capability” value in test [1] was “Yes”.
On to “L6-G3A: M-TCE; QDANEESSGGGSPLGLSSGGGS-SP34VH, SEQ ID NO 41”, for which, in test [1], the “Masking Capability” value was “Yes”.
Regarding “L7-D2G: M-TCE; QGGNEESSGGSGSPLGLSSGGSGS-SP34VH, SEQ ID NO 36”, the “Masking Capability” value in test [1] is “Yes”. Further, the EC50 in test [2] (MMP9-digested) came to 0.011 nM. The 50% effective concentration (EC50) in test [2] (Non-digested) is 0.096 nM. In test [2], the “tumor cell killing efficacy” value was “higher efficacy in inducing tumor cell killing than their undigested counterparts” and the Digested vs. masked is 9×.
Take “L4-G3R: M-TCE; QDRNEEGSGSPLGLGSGS-SP34VH, SEQ ID NO 44”: in test [1], the “Masking Capability” value is “Yes”.
Still for that read-out and setting: with “L2-WT: M-TCE; QDGNEEGSPLGLGS-SP34VH, SEQ ID NO 13” the entry was “Yes”.
The same measure, in the same setting: as for “L2-Q1H: M-TCE; HDGNEEGSPLGLGS-SP34VH, SEQ ID NO 22”, the entry is “No”.
The same measure, in the same setting: with “L2-D2E: M-TCE; QEGNEEGSPLGLGS-SP34VH, SEQ ID NO 26” the entry was “Yes”; with “L6-G3R: M-TCE; QDRNEESSGGGSPLGLSSGGGS-SP34VH, SEQ ID NO 45”, “Yes”.
As for “L4-WT: M-TCE; QDGNEEGSGSPLGLGSGS-SP34VH, SEQ ID NO 15”, the “Masking Capability” value in test [1] is “Yes”.
For “L2-Q1E: M-TCE; EDGNEEGSPLGLGS-SP34VH, SEQ ID NO 19”, in test [1], the “Masking Capability” value was “No”.

B1: SP34-CEA (bispecific antibody)
heavy: EVKLLESGGGLVQPKGSLKLSCAASGFTFNTYAMNWVRQAPGKGLEWVARIRSKYNNYATYYADSVKDRFTISRDDSQSILYLQMNNLKTEDTAMYYCVRHGNFGNSYVSWFAYWGQGTLVTVSS
light: QAVVTQESALTTSPGETVTLTCRSSTGAVTTSNYANWVQEKPDHLFTGLIGGTNKRAPGVPARFSGSLIGDKAALTITGAQTEDEAIYFCALWYSNLWVFGGGTKVEIK
chain: EVQLVESGGGFVQAGESLTLSCTSSTLTFTPYRMAWYRQAPGKQRDLVADISSGDGRTTNYADFAKGRFTISRDNIKNTVFLRMTNLKPEDTAVYYCNTFVSFVGIARSWGQGTQVTVSSESKYGPPCPPCPAPEAAGGPSVFLFPPKPKDTLMISRTPEVTCVVVDVSQEDPEVQFNWYVDGVEVHNAKTKPREEQFNSTYRVVSVLTVLHQDWLNGKEYKCKVSNKGLPSSIEKTISKAKGQPREPQVCTLPPSQEEMTKNQVSLSCAVKGFYPSDIAVEWESNGQPENNYKTTPPVLDSDGSFFLVSRLTVDKSRWQEGNVFSCSVMHEALHNRFTQKSLSLSL
Turning to B1, the “EC50 of M-TCE-induced killing of HT29 cells in the presence of human PBMC” value (“EC50 of M-TCE-induced killing … of human PBMC” below) in test [3] worked out at 0.001 nM.

B2: MMP9-digested L7-D2G (bispecific antibody, not shown: small tags and cut ends)
heavy: EVKLLESGGGLVQPKGSLKLSCAASGFTFNTYAMNWVRQAPGKGLEWVARIRSKYNNYATYYADSVKDRFTISRDDSQSILYLQMNNLKTEDTAMYYCVRHGNFGNSYVSWFAYWGQGTLVTVSS
light: QAVVTQESALTTSPGETVTLTCRSSTGAVTTSNYANWVQEKPDHLFTGLIGGTNKRAPGVPARFSGSLIGDKAALTITGAQTEDEAIYFCALWYSNLWVFGGGTKVEIK
chain: EVQLVESGGGFVQAGESLTLSCTSSTLTFTPYRMAWYRQAPGKQRDLVADISSGDGRTTNYADFAKGRFTISRDNIKNTVFLRMTNLKPEDTAVYYCNTFVSFVGIARSWGQGTQVTVSSESKYGPPCPPCPAPEAAGGPSVFLFPPKPKDTLMISRTPEVTCVVVDVSQEDPEVQFNWYVDGVEVHNAKTKPREEQFNSTYRVVSVLTVLHQDWLNGKEYKCKVSNKGLPSSIEKTISKAKGQPREPQVCTLPPSQEEMTKNQVSLSCAVKGFYPSDIAVEWESNGQPENNYKTTPPVLDSDGSFFLVSRLTVDKSRWQEGNVFSCSVMHEALHNRFTQKSLSLSL
As to B2, the “EC50 of M-TCE-induced killing … of human PBMC” value in test [3] stood at 0.011 nM.

B3: MMP9-digested L6-D2E (bispecific antibody, not shown: small tags and cut ends)
heavy: EVKLLESGGGLVQPKGSLKLSCAASGFTFNTYAMNWVRQAPGKGLEWVARIRSKYNNYATYYADSVKDRFTISRDDSQSILYLQMNNLKTEDTAMYYCVRHGNFGNSYVSWFAYWGQGTLVTVSS
light: QAVVTQESALTTSPGETVTLTCRSSTGAVTTSNYANWVQEKPDHLFTGLIGGTNKRAPGVPARFSGSLIGDKAALTITGAQTEDEAIYFCALWYSNLWVFGGGTKVEIK
chain: EVQLVESGGGFVQAGESLTLSCTSSTLTFTPYRMAWYRQAPGKQRDLVADISSGDGRTTNYADFAKGRFTISRDNIKNTVFLRMTNLKPEDTAVYYCNTFVSFVGIARSWGQGTQVTVSSESKYGPPCPPCPAPEAAGGPSVFLFPPKPKDTLMISRTPEVTCVVVDVSQEDPEVQFNWYVDGVEVHNAKTKPREEQFNSTYRVVSVLTVLHQDWLNGKEYKCKVSNKGLPSSIEKTISKAKGQPREPQVCTLPPSQEEMTKNQVSLSCAVKGFYPSDIAVEWESNGQPENNYKTTPPVLDSDGSFFLVSRLTVDKSRWQEGNVFSCSVMHEALHNRFTQKSLSLSL
Consider B3, for which the “EC50 of M-TCE-induced killing … of human PBMC” value in test [3] amounted to 0.01 nM.

B4: L4-D2E (bispecific antibody)
heavy: QEGNEEGSGSPLGLGSGSEVKLLESGGGLVQPKGSLKLSCAASGFTFNTYAMNWVRQAPGKGLEWVARIRSKYNNYATYYADSVKDRFTISRDDSQSILYLQMNNLKTEDTAMYYCVRHGNFGNSYVSWFAYWGQGTLVTVSS
light: QAVVTQESALTTSPGETVTLTCRSSTGAVTTSNYANWVQEKPDHLFTGLIGGTNKRAPGVPARFSGSLIGDKAALTITGAQTEDEAIYFCALWYSNLWVFGGGTKVEIK
chain: EVQLVESGGGFVQAGESLTLSCTSSTLTFTPYRMAWYRQAPGKQRDLVADISSGDGRTTNYADFAKGRFTISRDNIKNTVFLRMTNLKPEDTAVYYCNTFVSFVGIARSWGQGTQVTVSSESKYGPPCPPCPAPEAAGGPSVFLFPPKPKDTLMISRTPEVTCVVVDVSQEDPEVQFNWYVDGVEVHNAKTKPREEQFNSTYRVVSVLTVLHQDWLNGKEYKCKVSNKGLPSSIEKTISKAKGQPREPQVCTLPPSQEEMTKNQVSLSCAVKGFYPSDIAVEWESNGQPENNYKTTPPVLDSDGSFFLVSRLTVDKSRWQEGNVFSCSVMHEALHNRFTQKSLSLSL
Regarding B4, in test [3], the “Digested vs. masked (ratio of killing EC50)” value was found to be 59 fold and the “EC50 of M-TCE-induced killing … of human PBMC” value turned out to be 0.65 nM.
